From US20230203081A1, “LINCOSAMIDE ANTIBIOTICS AND USES THEREOF” (President and Fellows of Harvard College, priority 2020, published 2023)
≈ marks a conversion by molar mass, not a printed value.

Legend:
Type in all cases: cell-based
E. coli armA = experiment: microbe, parasite or virus in culture; conditions: Escherichia coli, E. coli armA
In short: (§1)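 Per CLSI, MICs by broth microdilution or agar dilution; strains other than streptococci and anaerobes were sub-cultured overnight at 35° C on blood agar, with a final broth inoculum of 5×10^5 CFU/mL.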

E. coli ΔTolC = experiment: microbe, parasite or virus in culture; conditions: Escherichia coli, E. coli ΔTolC
In short: as §1

E. faecium Clinical VRE = experiment: MIC (broth microdilution or agar dilution, CLSI); conditions: Enterococcus faecium; E. faecium Clinical VRE; read-out: MIC
In short: (§2)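 CLSI MIC, broth microdilution or agar dilution; compound 128-0.06 μg/mL, 2.5% DMSO final; triplicate. Anaerobes (e.g. clostridia) and streptococci run by specialized procedures. Other strains: overnight 35° C on blood agar, CaMHB, 0.5 McFarland, inoculum 5×10^5 CFU/mL.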

E. faecium Line R & VRE = experiment: MIC (broth microdilution or agar dilution, CLSI); conditions: Enterococcus faecium, E. faecium Line R & VRE, read-out: MIC
In short: as §2

E. faecium VRE = experiment: MIC (broth microdilution or agar dilution, CLSI); conditions: Enterococcus faecium; E. faecium VRE; read-out: MIC
In short: as §2

P. aeruginosa ATCC 27853 = experiment: MIC (broth microdilution or agar dilution, CLSI); conditions: Pseudomonas aeruginosa, ATCC27853; P. aeruginosa ATCC 27853; read-out: MIC
In short: as §2

S. aureus MRSA = experiment: MIC (broth microdilution or agar dilution, CLSI); conditions: Staphylococcus aureus
In short: as §2

S. aureus cErmA = experiment: MIC (broth microdilution or agar dilution, CLSI); conditions: Staphylococcus aureus; S. aureus cErmA; read-out: MIC
In short: as §2

A. baumannii ATCC 19606 = experiment: MIC (broth microdilution or agar dilution, CLSI); conditions: Acinetobacter baumannii, ATCC19606; A. baumannii ATCC 19606; read-out: MIC
In short: as §1

E. coli ATCC 25922 = experiment: MIC (broth microdilution or agar dilution, CLSI); conditions: Escherichia coli, ATCC25922; E. coli ATCC 25922; read-out: MIC
In short: as §1

E. coli LptD = experiment: MIC (broth microdilution or agar dilution, CLSI); conditions: Escherichia coli, E. coli LptD; read-out: MIC
In short: as §1

E. faecalis ATCC 29212 = experiment: MIC (broth microdilution or agar dilution, CLSI); conditions: Enterococcus faecalis, ATCC29212, E. faecalis ATCC 29212; read-out: MIC
In short: as §1

[1] = tested on: E. faecalis MMX 847; cErmB; experiment: MIC (broth microdilution or agar dilution, CLSI); conditions: Enterococcus faecalis; E. faecalis MMX 847; cErmB; read-out: MIC
In short: as §1

K. oxytoca Clinical = experiment: MIC (broth microdilution or agar dilution, CLSI); conditions: Klebsiella oxytoca; K. oxytoca Clinical; read-out: MIC
In short: as §1

S. aureus ATCC 29213 = experiment: MIC (broth microdilution or agar dilution, CLSI); conditions: Staphylococcus aureus, ATCC29213, S. aureus ATCC 29213; read-out: MIC
In short: as §1

S. aureus ATCC 700699 = experiment: MIC (broth microdilution or agar dilution, CLSI); conditions: Staphylococcus aureus, ATCC700699; S. aureus ATCC 700699; read-out: MIC
In short: as §1

[2] = tested on: S. aureus ATCC BAA-1707 (MRSA); experiment: MIC (broth microdilution or agar dilution, CLSI); conditions: Staphylococcus aureus; S. aureus ATCC BAA-1707 (MRSA); read-out: MIC
In short: as §1

S. aureus hVISA = experiment: MIC (broth microdilution or agar dilution, CLSI); conditions: Staphylococcus aureus; S. aureus hVISA; read-out: MIC
In short: as §1

S. pneumoniae ATCC 49619 = experiment: MIC (broth microdilution or agar dilution, CLSI); conditions: Streptococcus pneumoniae, ATCC49619, S. pneumoniae ATCC 49619; read-out: MIC
In short: as §1

S. pneumoniae ATCC 6303 = experiment: MIC (broth microdilution or agar dilution, CLSI); conditions: Streptococcus pneumoniae, ATCC6303; S. pneumoniae ATCC 6303; read-out: MIC
In short: as §1

[3] = tested on: S. pneumoniae MMX 3028 cErmB; experiment: MIC (broth microdilution or agar dilution, CLSI); conditions: Streptococcus pneumoniae, MMX3028CERMB; S. pneumoniae MMX 3028 cErmB; read-out: MIC
In short: as §1

[4] = tested on: S. pneumoniae MMX 3031 cMefA; experiment: MIC (broth microdilution or agar dilution, CLSI); conditions: Streptococcus pneumoniae, MMX3031CMEFA, S. pneumoniae MMX 3031 cMefA; read-out: MIC
In short: as §1

S. pyogenes ATCC 19615 = experiment: MIC (broth microdilution or agar dilution, CLSI); conditions: Streptococcus pyogenes, ATCC19615, S. pyogenes ATCC 19615; read-out: MIC
In short: as §1

[5] = tested on: S. pyogenes MMX 946; cErmB; experiment: MIC (broth microdilution or agar dilution, CLSI); conditions: Streptococcus pyogenes; S. pyogenes MMX 946; cErmB; read-out: MIC
In short: as §1

E. faecalis VRE [6] = experiment: MIC (CLSI), first E. faecalis VRE line of Table 4; conditions: Enterococcus faecalis; E. faecalis VRE (Table 4, first VRE line); read-out: MIC
Method: (§3) Minimum inhibitory concentrations (MICs) were determined by broth microdilution method or agar dilution method following the Clinical and Laboratory Standards Institute guidelines. Standard bacterial strains were obtained from American Type Culture Collection (ATCC). Other bacterial strains were obtained from hospitals and commercial sources, so noted in Table 11. Before the start of the MIC experiment, standard and test compound stock solutions were prepared in dimethyl sulfoxide (DMSO, Aldrich D2650) at a stock concentration of 5,120 μg/mL. The compound concentration range typically employed for each experiment was 128-0.06 μg/mL (2.5% final DMSO concentration). Clindamycin was used as a comparator in all experiments and each experiment was performed in triplicate. Specialized procedures were employed for streptococcal and anaerobic strains. All other bacterial strains were sub-cultured on blood agar plates (tryptic soy agar with 5% sheep blood, Hardy Diagnostics) and incubated overnight at 35° C. Organisms were suspended in cation-adjusted Mueller-Hinton broth (CaMHB, BD 212322) and optical density was adjusted to 0.5 McFarland standard. Suspensions were further diluted to obtain a final inoculum of 5×10^5 CFU/mL for broth microdilution experiments.

E. faecalis VRE [7] = experiment: MIC (CLSI), second E. faecalis VRE line of Table 4; conditions: Enterococcus faecalis; E. faecalis VRE (Table 4, second VRE line); read-out: MIC
Method: as §3

E. faecalis VRE [8] = experiment: MIC (CLSI), third E. faecalis VRE line of Table 4; conditions: Enterococcus faecalis; E. faecalis VRE (Table 4, third VRE line); read-out: MIC
Method: as §3

For CS[C@H]1O[C@H]([C@H](NC(=O)[C@H]2NC[C@@H]3C[C@H](CC(C)C)CCO[C@H]32)[C@H](C)Sc2ccc(CN(C)C)cc2)[C@H](O)[C@H](O)[C@H]1O [FSA-09-04-092, (4S,5aS,8S,8aR)-N-((1S,2S)-2-((4-((Dimethylamino)methyl)phenyl)thio)-1-((2R,3R,4S,5R,6R)-3,4,5-trihydroxy-6-(methylthio)tetrahydro-2H-pyran-2-yl)propyl)-4-isobutyloctahydro-2H-oxepino[2,3-c]pyrrole-8-carboxamide], the MIC (E. coli armA) was 4 µg/mL (≈ 6.39 µM), the MIC (E. coli ΔTolC) was 0.25 µg/mL (≈ 0.399 µM) and the MIC (E. faecium Clinical VRE) was 1 µg/mL (≈ 1.6 µM). For the same compound, the MIC (E. faecium Line R & VRE) was 2 µg/mL (≈ 3.2 µM), the MIC (E. faecium VRE) was 4 µg/mL (≈ 6.39 µM) and the MIC (P. aeruginosa ATCC 27853) was 64 µg/mL (≈ 102 µM). It also gave an MIC (S. aureus MRSA) of 0.25 µg/mL (≈ 0.399 µM), an MIC (S. aureus cErmA) of 4 µg/mL (≈ 6.39 µM) and an MIC (A. baumannii ATCC 19606) of 16 µg/mL (≈ 25.6 µM). The MIC (E. coli ATCC 25922) was 4 µg/mL (≈ 6.39 µM), the MIC (E. coli LptD) was 0.5 µg/mL (≈ 0.799 µM) and the MIC (E. faecalis ATCC 29212) was 0.25 µg/mL (≈ 0.399 µM). It also gave an MIC [1] of 1 µg/mL (≈ 1.6 µM), an MIC (K. oxytoca Clinical) of 8 µg/mL (≈ 12.8 µM) and an MIC (S. aureus ATCC 29213) of 0.5 µg/mL (≈ 0.799 µM). The MIC (S. aureus ATCC 700699) was 8 µg/mL (≈ 12.8 µM), the MIC [2] was 0.25 µg/mL (≈ 0.399 µM) and the MIC (S. aureus hVISA) was 16 µg/mL (≈ 25.6 µM). It also gave an MIC (S. pneumoniae ATCC 49619) of 0.25 µg/mL (≈ 0.399 µM), an MIC (S. pneumoniae ATCC 6303) of 0.06 µg/mL (≈ 0.0959 µM) and an MIC [3] of 0.125 µg/mL (≈ 0.2 µM). The MIC [4] was 0.06 µg/mL (≈ 0.0959 µM), the MIC (S. pyogenes ATCC 19615) was 0.25 µg/mL (≈ 0.399 µM) and the MIC [5] was 0.25 µg/mL (≈ 0.399 µM). For the same compound, the MIC (E. faecalis VRE [6]) was 4 µg/mL (≈ 6.39 µM), the MIC (E. faecalis VRE [7]) was 8 µg/mL (≈ 12.8 µM) and the MIC (E. faecalis VRE [8]) was 4 µg/mL (≈ 6.39 µM).
